Test results as given in PubChem BioAssay (NCI).
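Interpolation was linear, between the two tested concentrations surrounding the appropriate level; five concentrations were tested over 48 hours in 96-well plates. The concentration for 50% growth inhibition is given as GI50. TGI marks complete inhibition of growth.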

Tests used:
Test in all cases: DTP human tumour cell line panel, 48 h
[1] = tested on: SF-268 CNS
[2] = tested on: OVCAR-3 ovarian
[3] = tested on: SK-MEL-28 melanoma
[4] = tested on: SK-MEL-5 melanoma
[5] = tested on: CCRF-CEM leukemia
[6] = tested on: MOLT-4 leukemia
[7] = tested on: HCT-116 colon
[8] = tested on: IGROV1 ovarian
[9] = tested on: MDA-MB-231 breast
[10] = tested on: PC-3 prostate
[11] = tested on: SF-295 CNS
[12] = tested on: LOX IMVI melanoma
[13] = tested on: HS 578T breast
[14] = tested on: SK-MEL-2 melanoma
[15] = tested on: NCI/ADR-RES ovarian
[16] = tested on: HOP-92 NSCLC
[17] = tested on: MCF7 breast
[18] = tested on: BT-549 breast
[19] = tested on: MALME-3M melanoma
[20] = tested on: COLO 205 colon
[21] = tested on: OVCAR-8 ovarian
[22] = tested on: HCC-2998 colon
[23] = tested on: U251 CNS
[24] = tested on: UACC-62 melanoma
[25] = tested on: OVCAR-5 ovarian
[26] = tested on: DU-145 prostate
[27] = tested on: OVCAR-4 ovarian
[28] = tested on: EKVX NSCLC
[29] = tested on: RPMI-8226 leukemia
[30] = tested on: HOP-62 NSCLC
[31] = tested on: NCI-H522 lung
[32] = tested on: UACC-257 melanoma
[33] = tested on: NCI-H460 lung
[34] = tested on: HT29 colon
[35] = tested on: ACHN renal
[36] = tested on: SN12C renal
[37] = tested on: SR leukemia
[38] = tested on: SK-OV-3 ovarian
[39] = tested on: RXF 393 renal
[40] = tested on: HCT-15 colon
[41] = tested on: CAKI-1 renal
[42] = tested on: SNB-19 CNS
[43] = tested on: T-47D breast
[44] = tested on: KM12 colon
[45] = tested on: SF-539 CNS
[46] = tested on: K-562 leukemia
[47] = tested on: 786-0 renal
[48] = tested on: A549 NSCLC
[49] = tested on: TK-10 renal
[50] = tested on: MDA-MB-435
[51] = tested on: M14 melanoma
[52] = tested on: UO-31 renal
[53] = tested on: A498 renal
[54] = tested on: SW-620 colon

CC1(C)OC[C@@H]([C@@]2(CO[Si](C)(C)C(C)(C)C)CC=CC(=O)O2)O1
GI50 [1]: 29 µM | TGI [1]: 89.2 µM | GI50 [2]: 15.9 µM | TGI [2]: 39.7 µM | GI50 [3]: 21.8 µM | TGI [3]: 48.9 µM | GI50 [4]: 19 µM | TGI [4]: 36.3 µM | GI50 [5]: 26.2 µM | TGI [5]: > 100 µM | GI50 [6]: 23.7 µM | TGI [6]: > 100 µM | GI50 [7]: 17.6 µM | TGI [7]: 44.6 µM | GI50 [8]: 23.1 µM | TGI [8]: 49.6 µM | GI50 [9]: 27.2 µM | TGI [9]: 59.9 µM | GI50 [10]: 19.6 µM | TGI [10]: 74.2 µM | GI50 [11]: 19.6 µM | TGI [11]: 42 µM | GI50 [12]: 28.3 µM | TGI [12]: > 100 µM | GI50 [13]: 30.4 µM | TGI [13]: 89.4 µM | GI50 [14]: 40.4 µM | TGI [14]: > 100 µM | GI50 [15]: 21.7 µM | TGI [15]: 49.2 µM | GI50 [16]: 14.1 µM | TGI [16]: 43.4 µM | GI50 [17]: 36.8 µM | TGI [17]: > 100 µM | GI50 [18]: 24.1 µM | TGI [18]: 47.8 µM | GI50 [19]: 20.1 µM | TGI [19]: 47.6 µM | GI50 [20]: 33.5 µM | TGI [20]: > 100 µM | GI50 [21]: 33.9 µM | TGI [21]: > 100 µM | GI50 [22]: 18.6 µM | TGI [22]: 34.1 µM | GI50 [23]: 31.2 µM | TGI [23]: > 100 µM | GI50 [24]: 19 µM | TGI [24]: 44.6 µM | GI50 [25]: 28.6 µM | TGI [25]: 69.3 µM | GI50 [26]: 18.7 µM | TGI [26]: 40.9 µM | GI50 [27]: 30.7 µM | TGI [27]: > 100 µM | GI50 [28]: 26.9 µM | TGI [28]: 63.3 µM | GI50 [29]: 24.2 µM | TGI [29]: 80.5 µM | GI50 [30]: 31 µM | TGI [30]: 53.1 µM | GI50 [31]: 30.2 µM | TGI [31]: 86.2 µM | GI50 [32]: 13.8 µM | TGI [32]: 33.2 µM | GI50 [33]: 26.6 µM | TGI [33]: > 100 µM | GI50 [34]: 34.5 µM | TGI [34]: > 100 µM | GI50 [35]: 22.4 µM | TGI [35]: 51.7 µM | GI50 [36]: 19.5 µM | TGI [36]: 47.6 µM | GI50 [37]: 19 µM | TGI [37]: 59.9 µM | GI50 [38]: 30.4 µM | TGI [38]: 88.5 µM | GI50 [39]: 23.6 µM | TGI [39]: 56.3 µM | GI50 [40]: 34.7 µM | TGI [40]: > 100 µM | GI50 [41]: 12.2 µM | TGI [41]: 57.7 µM | GI50 [42]: 22.7 µM | TGI [42]: 68.9 µM | GI50 [43]: 24.9 µM | TGI [43]: > 100 µM | GI50 [44]: 31.1 µM | TGI [44]: > 100 µM | GI50 [45]: 20.6 µM | TGI [45]: 42.4 µM | GI50 [46]: 26.7 µM | TGI [46]: > 100 µM | GI50 [47]: 20.7 µM | TGI [47]: 40.4 µM | GI50 [48]: 16.7 µM | TGI [48]: 47.5 µM | GI50 [49]: 18.3 µM | TGI [49]: 40.7 µM | GI50 [50]: 22.8 µM | TGI [50]: 57.4 µM | GI50 [51]: 20.9 µM | TGI [51]: 50.7 µM | GI50 [52]: 19.2 µM | TGI [52]: 42.2 µM | GI50 [53]: 18.6 µM | TGI [53]: 36.1 µM | GI50 [54]: 28.3 µM | TGI [54]: 69.8 µM
